Experimental data taken from patent US20250382588A1, “CHIMERIC AAV AND USES THEREOF” (priority 2023, published 2025).
“Also recorded” adds a separate entry of the source.

Assays:
[1] = CSF concentration of DCZ by LC-MS; assay type: in vivo, macaques; conditions: 24 hours after drug infusion, 0.3 mg/kg i.m.
Source text: One month of washout was allowed before administration of DCZ.

[2] = in vivo
rM3Ds = molecular target: T1, rM3Ds (Rattus norvegicus, UniProt P08483, A177S/A238G/A489L/DEL261-437/DEL441-478/E258S/I253V/I483M/INS256[…]/K178L/K182A/K255R/K484R/K486H/L173F/L482A/M480V/R171S/R176Q/R179M/S481M/T174R/T181R/T257A/Y148C); test: Electrophysiological recording in caudate/putamen of MPP+ lesioned macaques after CNO or DCZ; assay type: in vivo
T1 sequence (P08483 with tags, fused parts or gaps Y148C/R171S/L173F/T174R/R176Q/A177S/K178L/R179M/T181R/K182A/A238G/I253V/K255R/INS256[…]/T257A/E258S/DEL261-437/DEL441-478/M480V/S481M/L482A/I483M/K484R/K486H/A489L): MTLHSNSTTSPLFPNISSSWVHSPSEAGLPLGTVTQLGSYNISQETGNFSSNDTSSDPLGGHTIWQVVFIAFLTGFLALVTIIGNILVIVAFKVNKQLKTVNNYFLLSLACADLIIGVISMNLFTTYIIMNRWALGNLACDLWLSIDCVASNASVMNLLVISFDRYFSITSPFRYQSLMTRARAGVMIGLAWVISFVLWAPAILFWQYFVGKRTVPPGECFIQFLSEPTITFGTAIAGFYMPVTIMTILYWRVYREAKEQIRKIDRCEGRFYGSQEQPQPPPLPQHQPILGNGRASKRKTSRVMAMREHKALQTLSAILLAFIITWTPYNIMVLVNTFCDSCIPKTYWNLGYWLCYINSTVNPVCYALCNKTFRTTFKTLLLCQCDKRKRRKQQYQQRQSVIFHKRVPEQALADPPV
Procedure: Intriguingly, many of the symptoms were greatly reversed after systemic deschloroclozapine (DCZ) administration. DCZ is a potent brain-penetrable agonist for rM3Ds with reduced off-targeting binding compared to CNO, and was administered to activate the DREADD system in the macaque brain.
Electrophysiological recording was performed through a recording chamber while the monkey was anesthetized. Neural responses were recorded by a 16-channel linear probe (Plexon Inc, Uprobe) driven by a mechanical microdrive (Alpha Omega, FlexMT). Signals were passed through a head stage (Plexon Inc, HST/16V-G20 LN) and then split and filtered between 300 Hz and 5 kHz to identify spiking activity with an amplifier system (Plexon Inc, OmniPlex). Detected spikes were then sorted by commercially available software (Plexon Inc, Offline Sorter) for further analysis. To quantify the effect of CNO/DCZ injection, neural activity was recorded for 60 minutes following CNO/DCZ injection. The response time-course for each channel was obtained by counting the spikes within every 10-minute window and then normalizing to the maximal.
To determine the effect of CNO/DCZ injection on the direction of signal change, we performed Pearson correlation between neural responses and time using the ‘corr’ function in Matlab, which generates the correlation coefficient ‘r’ and significant level ‘p’. A neuron was considered to have “Increased” activity when r>0 and p<[…]; and considered to have “Decreased” activity when r<0 and p<0.05. Otherwise, neurons were considered to be “Unchanged” in their neural activities. The responses of all increased neurons were then averaged after being normalized by the maximal response (Crowe et al., 2014; Dai and Wang, 2018; Hirokawa et al., 2019) following CNO/DCZ injection, and then plotted as a function of time to generate the normalized population response.

[3] = tested on: parkinsonian macaque model (MPP+); test: Parkinsonian symptoms in MPP+ macaques (PD score, locomotion, EMG tremor, motor skill, dyskinesia score)
Procedure: Parkinsonian conditions in macaque monkeys were established by unilaterally injecting 1-Methyl-4-phenylpyridinium (MPP+) into the SNc (FIG. 14). […] Drug injections were performed in five sites covering the whole SNc. A total volume of 10 ul MPP+ was injected into SNc at a speed of 50 nL/min. Monkeys were continuously monitored by veterinarians after lesion.
Two experienced observers blindly evaluated parkinsonian symptoms of the monkeys three days per week throughout the observation periods. Parkinsonian symptoms were quantified according to the well-established Kurlan scale (Part I. Parkinsonian features), a widely used scale to quantify PD symptoms in old world monkeys. A score of zero indicates a normal monkey, whereas a maximum score of 29 indicates an animal with severe PD symptoms. For separate behavioral categories, scoring of the upper limb and the lower limb were added together. Additionally, action or intention tremors and resting tremors were added together.
Two experienced observers blindly evaluated dyskinesia symptoms of the monkeys three days per week throughout the observation periods. Dyskinesia score criteria were: 0: Absent. 1: Mild, fleeting, present <30% of the observation period. 2: Moderate, not interfering with normal activity, present >30% of the observation period. 3: Marked, at times interfering with normal activity; present <70% of the observation period.4: Severe, continuous, replacing normal activity, present >70% of the observation.
For parkinsonian monkeys, DCZ (Deschloroclozapine, 0.3 mg/kg, MCE) was administered via intramuscular injection. After DCZ was successfully infused, monkeys were immediately transferred to the observation cage for video recording. […] For long-term DCZ treatment, parkinsonian monkeys were given DCZ at a dose of 0.3 mg/kg every other day via intramuscular injection. […] One month of washout was allowed before administration of DCZ for a 2 months treatment.
A grasp-to-eat/hand-to-mouth movement test was conducted as an indication of motor skills in monkeys. Monkeys were first trained to sit in a primate chair with the healthy hand restricted. Monkeys were then trained to grasp food (a piece of apple, ˜1 cm3) using the MPP+-affected hand from the experimenter. The task contained three blocks, with 20-minute intervals between different blocks. Each block included ten continuous trials. Trials were defined as successful when monkeys were able to bring food to their mouth within a minute.
During video recording, a top (x/y) and a side (x/z) camera were used to record the observation cage. The VigiePrimate system (Viewpoint) was used to analyze the subject's activity and extract movement data from the recorded videos. The tracking data were synchronously sampled at 25 Hz for both top view and side view, and then combined to generate one dataset representing the 3D space. The tracking data were normalized to 0-100 cm for all x-, y-, and z-axes, of which x represents right to left, y represents front to back, and z represents bottom to top.
Customized surface EMG electrodes were used for EMG recordings.

[4] = Motor-related behaviors in naïve macaques after DCZ; assay type: in vivo; conditions: DCZ 0.3 mg/kg
Procedure: The locomotion tests for monkeys were conducted in a custom-made observation cage (100 cm×100 cm×100 cm). The top and front of the cage were made of toughened glass in order to gain a clear view for behavioral recording. Monkeys were habituated to the observation cage by placing them inside for 30 minutes on three separate days.

[5] = tested on: striatal D1 MSNs (striatonigral projection neurons); test: Retrograde labeling of striatonigral projection neurons after AAV injection into the SNr; assay type: in vivo, mice; conditions: for Mean: Table 2, AAVs with capsid and promoter, labeled cells per striatal hemisphere after nigral delivery; for retrograde labeling/infectivity of striatal projection neurons (D1 MSNs), in words: injection into the SNr; for labeled striatonigral projection neurons (FIG. 2C): mean±SEM, n=3 mice, viruses injected into the SNr; for times more EYFP positive/labeled MSNs compared to rAAV2-retro: nigral delivery, hSyn-EYFP
Procedure: To improve efficiency, multiple rounds of mutations of AAV capsids were performed on a series of different serotypes. Mutations were introduced at three sites in the AAV8 capsid protein to make AAV8R, including N385D, insertion of […] (SEQ ID NO: 31) at position 588, and TS711-712IN. Two additional mutations of V183E and N411S were incorporated into the AAV8R12 capsid protein (FIG. 1A). The labeling pattern of the AAV8R12 capsid and G88 promoter combination was determined.
First, the polypeptide fragment RGNLADODYTKTARQAATAD (SEQ ID NO.: 31) was inserted at the N587-R588 position; two other point mutations of the AAV2 Cap protein were made to develop rAAV2-retro. Similar mutations were then placed at equivalent positions for four other AAV serotypes (FIGS. 1A-IC and 25, TABLE 1), AAV1/5/6/8 (FIG. 1A). […] When administered into the SNr, 4.86±0.22 times EYFP positive MSNs in mice infected by AAV8R-hSyn-EYFP were observed as compared to those infected by rAAV2-retro-hSyn-EYFP (FIG. 2A-2C).
Baseline infectivity of rAAV2-retro was approximately 0.2±0.03×10^4 cells per striatal hemisphere (using a hSyn promoter) (TABLE 2). […] Compared to the current standard retrograde AAV, rAAV2-retro, AAV8R12 labeled 7.72±0.78-times more MSNs after nigral delivery (FIG. 2B-2C, TABLE 1). […] The AAV8R12 was generated using the AAV8R plasmid as a template.
Mice were anesthetized with sodium pentobarbital (Nembutal; 80 mg/kg, i.p.), and then placed into a stereotaxic device (KOPF). Eye cream was applied on both corneas to avoid dehydration. The skull above the targeted areas was thinned with a dental drill and carefully removed. Injections were conducted with a 10 μL syringe connected to a 33-Gauge needle (Neuros; Hamilton), using a microsyringe pump (Legato 130, KD Scientific). A total volume of 200 nL virus was injected into the SNr at a speed of 20 nL/min. The coordinates for the SNr were 3.4 mm posterior, 1.3 mm lateral, 4.8 mm ventral to the bregma.
HEK293T cells (ATCC) were co-transfected by calcium phosphate with an AAV vector plasmid, an AAV Rep-Cap plasmid (rAAV2-retro, AAV1R, AAV5R, AAV6R, AAV8R, and AAV8R1-14), and the pAdDeltaF6 helper plasmid (Addgene, 112867) harboring the adenoviral genes required for the AAV life cycle. HEK293T cells grown in 15 cm cell culture dishes were co-transfected with the mixture of three plasmids (1:1:1) at 80% confluency. 48-72 hours post-transfection, cells were collected and resuspended in a buffer containing 150 mM NaCl and 100 mM Tris-HCl (pH 8.0). Cells were lysed by repeated freeze-thaw cycles in liquid nitrogen and a 37° C. water bath. AAV particles were purified and concentrated using Millipore Amicon 100K columns (Merck Millipore, UFC910008). Encapsidated viral DNA was quantitated by qPCR (Thermo Fisher) with primers recognizing the viral WPRE and/or ITR sequences following denaturation of the AAV particles using Proteinase K. Titers were calculated as genome copies per milliliter.
Images were acquired using a confocal microscope (Carl Zeiss, LSM880) and an Axiolmager.Z1 microscope with apotome (Carl Zeiss). Brain structures were identified microscopically and in digital photos using a mouse brain atlas. To analyze the number of EYFP+ cells in the striatum, slices from rostral to caudal striatum were used. Every sixth section was analyzed, and numbers of EYFP+ cells were multiplied by six to acquire the approximate total number and mean number of cells per animal. Images were processed using ImageJ (NIH, USA), and final quantifications were independently performed manually by two blinded experimenters.

[6] = tested on: MSNs in nucleus accumbens; test: Retrograde labeling of accumbal MSNs after delivery into ventral pallidum or lateral hypothalamus; assay type: in vivo, mice
[7] = caudate/putamen, CNO 36 cells, DCZ 31 cells

## CN1CCN(C2=Nc3ccccc3Nc3ccccc32)CC1 [DCZ, deschloroclozapine]
[1]
  DCZ level in cerebrospinal fluid: no detectable levels
[2]
  blood levels of common liver- and kidney-related factors: remained stable
rM3Ds; anesthetized animals
  neuronal activity in MPP+ lesioned macaques, in words: induced an increase in neuronal activity
rM3Ds; [7]
  cells activated (FIG. 15G): 41.9%
  cells inactivated (FIG. 15G): 9.7%
  cells unchanged (FIG. 15G): 48.4%
[3]; DCZ treatment
  motor skills (hand to mouth movement): significant recovery of motor skills; also recorded: partially restored
  spontaneous movement/motor deficits in an observation cage: increase in spontaneous movement; also recorded: successfully rescue motor deficits
  tremor (EMG): great reduced or even eliminated; also recorded: removed
[3]; FIG. 18C
  duration of effect: over 24 hr
[3]; continuous DCZ
  alleviation of parkinsonian symptoms over long-term treatment: consistent during an 8-month continuous treatment
[3]; initial phase of drug administration
  speed of reversal of symptoms: faster reversal of symptoms than levodopa; also recorded: faster than L-Dopa
[3]; long-term treatment
  dyskinesia-like behaviors (dyskinesia score): dyskinesia-free; also recorded: did not elicit dyskinesia-like behaviors; also recorded: dyskinesia free
[3]; single dose after steady-state efficacy
  alleviating symptoms after drug administration: at least 24 hours
[4]
  motor-related behaviors in naïve monkeys: did not alter motor-related behaviors; also recorded: doesn't alter motor-related behaviors

B1: AAV8R12: AAV8R capsid mutant V183E + N411S, SEQ ID NO: 13 (protein)
chain: MAADGYLPDWLEDNLSEGIREWWALKPGAPKPKANQQKQDDGRGLVLPGYKYLGPFNGLDKGEPVNAADAAALEHDKAYDQQLQAGDNPYLRYNHADAEFQERLQEDTSFGGNLGRAVFQAKKRVLEPLGLVEEGAKTAPGKKRPVEPSPQRSPDSSTGIGKKGQQPARKRLNFGQTGDSESEPDPQPLGEPPAAPSGVGPNTMAAGGGAPMADNNEGADGVGSSSGNWHCDSTWLGDRVITTSTRTWALPTYNNHLYKQISNGTSGGATNDNTYFGYSTPWGYFDFNRFHCHFSPRDWQRLINNNWGFRPKRLSFKLFNIQVKEVTQNEGTKTIANNLTSTIQVFTDSEYQLPYVLGSAHQGCLPPFPADVFMIPQYGYLTLNDGSQAVGRSSFYCLEYFPSQMLRTGNSFQFTYTFEDVPFHSSYAHSQSLDRLMNPLIDQYLYYLSRTQTTGGTANTQTLGFSQGGPNTMANQAKNWLPGPCYRQQRVSTTTGQNNNSNFAWTAGTKYHLNGRNSLANPGIAMATHKDDEERFFPSNGILIFGKQNAARDNADYSDVMLTSEEEIKTTNPVATEEYGIVADNLQRGNLADQDYTKTARQAATADVNSQGALPGMVWQNRDVYLQGPIWAKIPHTDGNFHPSPLMGGFGLKHPPPQILIKNTPVPADPPTTFNQSKLNSFITQYSTGQVSVEIEWELQKENSKRWNPEIQYTSNYYKSINVDFAVNTEGVYSEPRPIGTRYLTRN
[5]; AAV8R capsid mutants, numbers of labeled neurons per animal
  Labeling Efficiency in Striatonigral Pathway: +++ (10 k-25 k)
[5]
  Mean: 16026
  retrograde labeling/infectivity of striatal projection neurons (D1 MSNs), in words: mostly improved efficiency
  labeled striatonigral projection neurons (FIG. 2C): 16026±1654
  times more EYFP positive/labeled MSNs compared to rAAV2-retro: 7.72±0.78 times
[6]
  labeling of MSNs in nucleus accumbens: robust labeling

B2: AAV8R: AAV8 capsid with N385D, insertion of SEQ ID NO: 31 at position 588 and TS to IN mutation; SEQ ID NO: 1 (protein)
chain: MAADGYLPDWLEDNLSEGIREWWALKPGAPKPKANQQKQDDGRGLVLPGYKYLGPFNGLDKGEPVNAADAAALEHDKAYDQQLQAGDNPYLRYNHADAEFQERLQEDTSFGGNLGRAVFQAKKRVLEPLGLVEEGAKTAPGKKRPVEPSPQRSPDSSTGIGKKGQQPARKRLNFGQTGDSESVPDPQPLGEPPAAPSGVGPNTMAAGGGAPMADNNEGADGVGSSSGNWHCDSTWLGDRVITTSTRTWALPTYNNHLYKQISNGTSGGATNDNTYFGYSTPWGYFDFNRFHCHFSPRDWQRLINNNWGFRPKRLSFKLFNIQVKEVTQNEGTKTIANNLTSTIQVFTDSEYQLPYVLGSAHQGCLPPFPADVFMIPQYGYLTLNDGSQAVGRSSFYCLEYFPSQMLRTGNNFQFTYTFEDVPFHSSYAHSQSLDRLMNPLIDQYLYYLSRTQTTGGTANTQTLGFSQGGPNTMANQAKNWLPGPCYRQQRVSTTTGQNNNSNFAWTAGTKYHLNGRNSLANPGIAMATHKDDEERFFPSNGILIFGKQNAARDNADYSDVMLTSEEEIKTTNPVATEEYGIVADNLQRGNLADQDYTKTARQAATADVNSQGALPGMVWQNRDVYLQGPIWAKIPHTDGNFHPSPLMGGFGLKHPPPQILIKNTPVPADPPTTFNQSKLNSFITQYSTGQVSVEIEWELQKENSKRWNPEIQYTSNYYKSINVDFAVNTEGVYSEPRPIGTRYLTRNL
[5]
  Mean: 10092
  retrograde labeling/infectivity of striatal projection neurons (D1 MSNs), in words: acquired improved retrograde infectivity
  labeled striatonigral projection neurons (FIG. 2C): 10092±463.9
  times more EYFP positive/labeled MSNs compared to rAAV2-retro: 4.86±0.22 times
[6]
  labeling of MSNs in nucleus accumbens: robust labeling
